Data reported in patent US20110182850A1, “ORGANIC COMPOUNDS AND THEIR USES” (priority 2009, published 2011).
Where two headings read alike, the source gives them in different places.

Experiments:
[1] = target: T1, HCV NS3-4A serine protease (full-length NS3-4A protein, genotype 1a, strain HCV-1) (Hepatitis C virus genotype 1a, UniProt P26664); assay: HCV NS3-4A protease assay; type: biochemical; details: Protease IC50
T1 construct: using the full-length NS3-4A protein (genotype 1a, strain HCV-1)
T1 sequence (P26664 1658-1711): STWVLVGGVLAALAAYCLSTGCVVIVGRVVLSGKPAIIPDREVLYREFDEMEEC
T1 sequence (P26664 1027-1657): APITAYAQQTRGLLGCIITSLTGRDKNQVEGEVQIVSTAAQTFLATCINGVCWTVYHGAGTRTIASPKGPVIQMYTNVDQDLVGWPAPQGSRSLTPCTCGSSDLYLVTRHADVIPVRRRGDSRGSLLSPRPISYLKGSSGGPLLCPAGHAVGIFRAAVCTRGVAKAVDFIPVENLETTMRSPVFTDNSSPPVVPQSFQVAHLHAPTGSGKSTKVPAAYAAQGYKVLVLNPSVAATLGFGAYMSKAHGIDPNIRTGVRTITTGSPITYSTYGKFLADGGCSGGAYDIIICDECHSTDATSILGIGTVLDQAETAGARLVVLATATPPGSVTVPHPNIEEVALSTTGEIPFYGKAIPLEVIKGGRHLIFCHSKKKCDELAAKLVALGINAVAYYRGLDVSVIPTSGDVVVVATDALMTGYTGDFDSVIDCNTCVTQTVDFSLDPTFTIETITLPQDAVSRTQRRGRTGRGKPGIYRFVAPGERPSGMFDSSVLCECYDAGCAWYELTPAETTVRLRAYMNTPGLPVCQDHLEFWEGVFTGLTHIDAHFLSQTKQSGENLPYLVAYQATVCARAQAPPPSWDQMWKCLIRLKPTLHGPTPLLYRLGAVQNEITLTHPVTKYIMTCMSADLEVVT
Description: The inhibitory activity of certain compounds of Table A against HCV NS3-4A serine protease is determined in a homogenous assay using the full-length NS3-4A protein (genotype 1a, strain HCV-1) and a commercially available internally-quenched fluorogenic peptide substrate as described by Taliani, M., et al. 1996 Anal. Biochem. 240:60-67, which is incorporated by reference in its entirety.

[2] = Measurement of thermodynamic solubility; type: physicochemical; details: for solubility at 24 h: thermodynamic from solid, read-out: solubility in water
Description: Thermodynamic solubility for the compounds of the invention listed in Table C is measured by a published literature procedure, e.g., Liping Zhou, et al., J. Pharm. Sci (2007) 96(11): 3052-3071.
The DMSO stocks of test compounds previously dissolved in 25 μL of DMSO (˜10 mM) in mini-prep vial (MPV: Whatman, with PVDF filter and 0.45 μm pore size) chamber were evaporated via a GeneVac HT-4X evaporator for approximately 1 hour, at the guard temperature of 30° C. An aliquot of 250 μL buffer solution (pH 1.0 or 6.8) was added into each MPV chamber containing powders reconstituted from DMSO stock solutions. The MPV filter plungers were pushed down into the chamber until the membrane of the filter plunger slightly touched the surface of the buffer to promote equilibrium between the two compartments and to minimize the adsorption due to non-specific binding of samples during the subsequent 24-hr incubation (at 600 RPM at room temperature). Immediately after the 24-hr incubation, the plungers were further pushed down to the bottom of the chambers. More solution was pushed through the membrane and entered the plunger compartment. The filter/chamber assemblies were then put on a shaker for another 30 minutes at 600 RPM. Afterwards, filtrates were further diluted (1:10) with 50/50 acetonitrile/water solvent followed by a thorough mixing process. Both plates with diluted and undiluted filtrates were analyzed by HPLC and quantified against the four-point standard dilution curve of the same test compound (5 μM, 35 μM, 65 μM and 100 μM, respectively). In the current study, solubility reflects the average of triplicate samples tested at each pH.

[3] = pH 1, simulated gastric fluid, pH of about 1
[4] = pH 6.8, aqueous buffer, pH of about 6.8

Compound | IC50 [1] [nM] | solubility at 24 h [2, 3] [µM] | solubility at 24 h [2, 4] [µM] | solubility in water ([2]; pH 1) | solubility in water ([2]; pH 6.8)
C=C[C@@H]1C[C@]1(NC(=O)[C@@H]1C[C@@]2(CN1C(=O)[C@@H](NC(=O)[C@@H](NC(=O)[C@@H]1CCCCN1CC)C1CCCCC1)C(C)(C)C)C(C)(C)C21CCC1)C(=O)NS(=O)(=O)C1(CCC)CC1 [Compound 67, (5R,8S)-7-[(2S)-2-{[(2S)-2-cyclohexyl-2-({[(2S)-1-ethylpiperidin-2-yl]carbonyl}amino)acetyl]amino}-3,3-dimethylbutanoyl]-10,10-dimethyl-N-[(1R,2S)-1-{[(1-propylcyclopropyl)sulfonyl]carbamoyl}-2-vinylcyclopropyl]-7-azadispiro[3.0.4.1]decane-8-carboxamide] | 1.5 | ≥ 100 | ≥ 30 | – | –
C=C[C@@H]1C[C@]1(NC(=O)[C@@H]1C[C@@]2(CN1C(=O)[C@@H](NC(=O)[C@@H](NC(=O)[C@@H]1CCCN1CC)C1CCCCC1)C(C)(C)C)C(C)(C)C21CCC1)C(=O)NS(=O)(=O)C1(CCC)CC1 [Compound 69, (5R,8S)-7-[(2S)-2-{[(2S)-2-cyclohexyl-2-({[(2S)-1-ethylpyrrolidin-2-yl]carbonyl}amino)acetyl]amino}-3,3-dimethylbutanoyl]-10,10-dimethyl-N-[(1R,2S)-1-{[(1-propylcyclopropyl)sulfonyl]carbamoyl}-2-vinylcyclopropyl]-7-azadispiro[3.0.4.1]decane-8-carboxamide] | 1.5 | ≥ 100 | ≥ 30 | – | –
C=C[C@@H]1C[C@]1(NC(=O)[C@@H]1C[C@@]2(CN1C(=O)[C@@H](NC(=O)[C@@H](NC(=O)[C@@H]1CCCN1CC)C1CCCCC1)C(C)(C)C)C(C)(C)C21CCC1)C(=O)NS(=O)(=O)C1(C)CC1 [Compound 71, (5R,8S)-7-[(2S)-2-{[(2S)-2-cyclohexyl-2-({[(2S)-1-ethylpyrrolidin-2-yl]carbonyl}amino)acetyl]amino}-3,3-dimethylbutanoyl]-10,10-dimethyl-N-[(1R,2S)-1-{[(1-methylcyclopropyl)sulfonyl]carbamoyl}-2-vinylcyclopropyl]-7-azadispiro[3.0.4.1]decane-8-carboxamide] | 0.3 | ≥ 100 | ≥ 30 | – | –
C=C[C@@H]1C[C@]1(NC(=O)[C@@H]1C[C@@]2(CN1C(=O)[C@@H](NC(=O)[C@@H](NC(=O)[C@H]1CCCCN1C(C)C)C1CCCCC1)C(C)(C)C)C(C)(C)C21CCC1)C(=O)NS(=O)(=O)C1(C)CC1 [Compound 74, (5R,8S)-7-[(2S)-2-{[(2S)-2-cyclohexyl-2-({[(2R)-1-isopropylpiperidin-2-yl]carbonyl}amino)acetyl]amino}-3,3-dimethylbutanoyl]-10,10-dimethyl-N-[(1R,2S)-1-{[(1-methylcyclopropyl)sulfonyl]carbamoyl}-2-vinylcyclopropyl]-7-azadispiro[3.0.4.1]decane-8-carboxamide] | 0.8 | ≥ 100 | ≥ 30 | – | –
CCCC1(S(=O)(=O)NC(=O)[C@@]2(NC(=O)[C@@H]3C[C@@]4(CN3C(=O)[C@@H](NC(=O)[C@@H](NC(=O)[C@@H]3CCCCN3CC)C3CCCCC3)C(C)(C)C)C(C)(C)C43CCC3)C[C@H]2CC)CC1 [Compound 76, (5R,8S)-7-[(2S)-2-{[(2S)-2-cyclohexyl-2-({[(2S)-1-ethylpiperidin-2-yl]carbonyl}amino)acetyl]amino}-3,3-dimethylbutanoyl]-N-[(1R,2R)-2-ethyl-1-{[(1-propylcyclopropyl)sulfonyl]carbamoyl}cyclopropyl]-10,10-dimethyl-7-azadispiro[3.0.4.1]decane-8-carboxamide] | 6 | ≥ 100 | ≥ 30 | – | –
(5R,8S)-7-[(2S)-2-{[(2S)-2-cyclohexyl-2-({[(2S)-1-isopropylpiperidin-2-yl]carbonyl}amino)acetyl]amino}-3,3-dimethylbutanoyl]-N-{(1R,2S)-1-[(cyclopentylsulfonyl)carbamoyl]-2-vinylcyclopropyl}-10,10-dimethyl-7-azadispiro[3.0.4.1]decane-8-carboxamide [Compound 80] | – | – | – | at least 100 micromolar | at least 30 micromolar
